From patent publication US20250059198A1, “BRM DEGRADING COMPOUNDS AND ASSOCIATED METHODS OF USE” (Arvinas Operations, Inc., priority 2021, published 2025)

Biological target: T1, BRM (Homo sapiens, UniProt P51531)
T1 construct: Western Blot Screen of BRM Degradation in SW1573 Cells; endogenous in cells; host or cells: SW1573 cells
Experiment: BRM degradation (Dmax and DC50) in SW1573 cells, Western blot screen / In-Cell Western screen
Format: cell-based
Conditions: overnight (18-20 hours) treatment; for Dmax: read-out: Dmax (%)** (% degraded)
Experimental: (§1) To assess BRM degradation (Dmax and DC50) cells were seeded at 8000/well in 96-well black/clear-bottom plates in 180 μL DMEM growth media (containing 1% pen-strep, 1% HEPES and 10% FBS) per well. Plates were incubated overnight to allow adhesion. The next morning cells were treated by adding 20 μL of 10× target compound concentration (1% DMSO) to appropriate wells and returned to incubator for overnight (18-20 hours). The final DMSO concentration was 0.1%.
For lysing, adherent cells were washed once with 100 μL of DPBS. Cells were lysed in 40 μL of 1×RIPA+HALT protease inhibitor on ice for 10 minutes and frozen until use at −80° C. Thawed lysates were cleaned by filtration in 1.2 µm filter plates, or alternatively, were spun clean at 2300 g at 4° C. for 30 minutes.
For blotting, for each Western sample 30 μL of lysate was added to 10 μL of 4× LDS sample buffer, then denatured at 95° C. for 5 minutes in the thermal cycler and placed on ice. Samples were loaded on 4-15% Tris/Glycine gels and run for 25 minutes at 250 constant volts in 1× Tris/Glycine buffer with 4 μL of ladder and 12 μL of each sample loaded for each blot. Protein was transferred from gels to NC with BioRad Turbo dry-transfer unit with the Turbo/midi default program. All blots were rinsed with ddH2O and blocked for 1 hour at room temperature in 5% BSA in TBST (0.1%) on rocker. Blots were exposed to primary antibody in 5% BSA in TBST (0.1%) overnight at 4° C. on rocker (1:1000 for BRM (Cell Signaling Tech. cat #11966) and 1:2000 for alpha-tubulin (Cell Signaling Tech. cat #3873), a control protein. Blot was washed with TBST (0.1%) three times for 5 minutes on rocker at room temperature. Secondary antibody was added, and blots were incubated on a room temperature rocker for 1 hour with 1:18,000 anti-rabbit-HRP and/or anti-mouse-HRP in 5% BSA in TBST (0.1%). Blots were washed three times in TBST (0.1%) for 5 minutes at room temperature on the rocker. Signal was developed with Femto Maximum Sensitivity substrate for 4 minutes and blots read on ChemiDoc™.
as §1, with “DC50),” for “DC50)”, “10×” for “10× target”, “compound” for “compound concentration”
For processing, the plates were removed from incubator, the media was removed, and immediately 200 μL of cold (4° C.) DPBS was added to all wells. DPBS was then removed, and 50 μL of 4% paraformaldehyde (PFA) in DPBS (4° C.) was added to all wells, and the plates were incubated at room temperature for 20 minutes. PFA was then removed, and 200 μL of TBS-T containing 0.5% Triton X-100 was added to all wells, and the plates were incubated at room temperature for 30 minutes. TBS-T containing 0.5% Triton X-100 was then removed, and 50 μL of Li-Cor blocking solution was added, and the plates were incubated at room temperature for a minimum of one hour. The blocking solution was removed, and 50 μL of Li-Cor blocking solution containing primary antibody cocktail was added (1:1000 for BRM (Cell Signaling Tech. cat #11966) and 1:2000 for alpha-tubulin (Sigma cat #T6074), a control protein. Plates were then placed in cold room until the next day.
The next day plates were washed three times with TBS-T, 200 μL per well. Fifty […] of secondary antibody cocktail in LI-COR blocking solution (anti-rabbit_800 nm and anti-mouse_680 nm) was added to all wells (diluted 1:5000). The plates were incubated at room temperature for at least one hour while protected from light. The plates were washed twice with TBS-T, 200 μL per well.
To read each plate TBS-T was removed, and each plate was inverted tapped on a paper towel. […]

T1 sequence (P51531 whole entry): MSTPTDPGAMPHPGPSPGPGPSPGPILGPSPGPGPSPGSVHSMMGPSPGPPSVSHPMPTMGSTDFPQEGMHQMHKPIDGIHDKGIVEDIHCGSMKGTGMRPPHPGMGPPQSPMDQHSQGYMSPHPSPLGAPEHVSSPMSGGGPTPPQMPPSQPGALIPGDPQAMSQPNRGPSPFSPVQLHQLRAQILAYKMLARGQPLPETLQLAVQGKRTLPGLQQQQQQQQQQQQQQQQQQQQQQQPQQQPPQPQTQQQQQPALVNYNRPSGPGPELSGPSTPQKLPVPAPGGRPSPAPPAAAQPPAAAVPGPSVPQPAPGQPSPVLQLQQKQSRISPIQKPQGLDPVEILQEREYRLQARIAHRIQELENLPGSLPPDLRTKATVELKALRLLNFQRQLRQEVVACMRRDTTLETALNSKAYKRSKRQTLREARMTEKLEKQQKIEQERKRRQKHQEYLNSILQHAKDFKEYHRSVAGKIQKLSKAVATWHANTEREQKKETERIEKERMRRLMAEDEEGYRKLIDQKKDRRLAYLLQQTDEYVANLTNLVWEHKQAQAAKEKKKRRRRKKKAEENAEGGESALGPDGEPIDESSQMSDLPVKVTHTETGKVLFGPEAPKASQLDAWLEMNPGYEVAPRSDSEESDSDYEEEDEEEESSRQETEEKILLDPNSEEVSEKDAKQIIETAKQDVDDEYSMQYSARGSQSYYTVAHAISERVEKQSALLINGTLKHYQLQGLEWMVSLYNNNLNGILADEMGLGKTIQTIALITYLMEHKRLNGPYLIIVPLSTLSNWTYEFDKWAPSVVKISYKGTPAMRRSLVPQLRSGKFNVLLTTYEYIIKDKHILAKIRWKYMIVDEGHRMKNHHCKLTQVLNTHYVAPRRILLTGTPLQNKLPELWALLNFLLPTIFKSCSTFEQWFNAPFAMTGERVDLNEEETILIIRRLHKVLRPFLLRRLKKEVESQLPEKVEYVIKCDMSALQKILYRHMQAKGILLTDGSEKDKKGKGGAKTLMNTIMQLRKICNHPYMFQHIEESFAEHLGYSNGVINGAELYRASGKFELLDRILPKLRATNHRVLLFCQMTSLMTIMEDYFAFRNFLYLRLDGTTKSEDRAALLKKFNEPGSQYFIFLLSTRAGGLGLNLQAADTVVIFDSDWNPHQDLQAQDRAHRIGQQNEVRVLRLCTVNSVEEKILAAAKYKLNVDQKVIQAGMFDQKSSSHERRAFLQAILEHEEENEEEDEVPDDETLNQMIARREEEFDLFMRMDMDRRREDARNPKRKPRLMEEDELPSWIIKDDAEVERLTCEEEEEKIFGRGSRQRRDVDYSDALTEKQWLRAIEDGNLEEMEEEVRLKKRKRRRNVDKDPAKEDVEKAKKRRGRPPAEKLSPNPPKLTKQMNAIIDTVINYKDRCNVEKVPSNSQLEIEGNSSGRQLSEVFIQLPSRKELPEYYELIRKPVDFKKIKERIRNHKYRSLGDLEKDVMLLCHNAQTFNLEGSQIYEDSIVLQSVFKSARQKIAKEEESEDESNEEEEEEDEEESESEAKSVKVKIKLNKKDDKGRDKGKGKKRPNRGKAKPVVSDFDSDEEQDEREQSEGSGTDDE

Row | Compound | DC50 [nM] | Dmax [%]
1 | Cc1ncsc1-c1ccc([C@H](C)NC(=O)[C@@H]2C[C@@H](O)CN2C(=O)[C@@H](c2cc(OCCN3CCC(OC(=O)N4CCN(c5cc(-c6ccccc6O)nnc5N)CC4)CC3)no2)C(C)C)cc1 [Compound 64, 1-[2-({5-[(2R)-1-[(2S,4R)-4-hydroxy-2-{[(1S)-1-[4-(4-methyl-1,3-thiazol-5-yl)phenyl]ethyl]carbamoyl}pyrrolidin-1-yl]-3-methyl-1-oxobutan-2-yl]-1,2-oxazol-3-yl}oxy)ethyl]piperidin-4-yl 4-[3-amino-6-(2-hydroxyphenyl)pyridazin-4-yl]piperazine-1-carboxylate] | 2.5 to 10 | > 75
2 | Cc1ncsc1-c1ccc([C@H](C)NC(=O)[C@@H]2C[C@@H](O)CN2C(=O)[C@@H](c2cc(N3CCN(C(=O)[C@H]4C[C@H](Oc5cc(N6C7CCC6CN(c6cc(-c8ccccc8O)nnc6N)C7)ccn5)C4)CC3)no2)C(C)C)cc1 [Compound 107, (2S,4R)-4-hydroxy-N-[(1S)-1-[4-(4-methyl-1,3-thiazol-5-yl)phenyl]ethyl]-1-[(2R)-3-methyl-2-(3-{4-[(1r,3r)-3-[(4-{3-[3-amino-6-(2-hydroxyphenyl)pyridazin-4-yl]-3,8-diazabicyclo[3.2.1]octan-8-yl}pyridin-2-yl)oxy]cyclobutanecarbonyl]piperazin-1-yl}-1,2-oxazol-5-yl)butanoyl]pyrrolidine-2-carboxamide] | ≥ 30 | –
3 | Cc1ncsc1-c1ccc([C@H](C)NC(=O)[C@@H]2C[C@@H](O)CN2C(=O)[C@@H](c2cc(N3CCC(CN4CCC5(CC4)CC(N4CCO[C@@H](C#CC(C)n6cc(-c7cc(-c8ccccc8O)nnc7N)cn6)C4)C5)CC3)no2)C(C)C)cc1 (stereo partly drawn) [Compound 121, (2S,4R)-1-[(2R)-2-{3-[4-({2-[(2S)-2-(3-{4-[3-amino-6-(2-hydroxyphenyl)pyridazin-4-yl]-1H-pyrazol-1-yl}but-1-yn-1-yl)morpholin-4-yl]-7-azaspiro[3.5]nonan-7-yl}methyl)piperidin-1-yl]-1,2-oxazol-5-yl}-3-methylbutanoyl]-4-hydroxy-N-[(1S)-1-[4-(4-methyl-1,3-thiazol-5-yl)phenyl]ethyl]pyrrolidine-2-carboxamide] | < 2.5 | > 75
4 | Cc1ncsc1-c1ccc([C@H](C)NC(=O)C2C[C@@H](O)CN2C(=O)[C@@H](c2cc(N3CCC(CN4CC[C@H](Oc5cc(N6C7CCC6CN(c6cc(-c8ccccc8O)nnc6N)C7)ccn5)C(F)(F)C4)CC3)no2)C(C)C)cc1 (stereo in doubt) [Compound 54, (2S,4R)-1-[(2R)-2-[3-(4-{[(4S)-4-[(4-{3-[3-amino-6-(2-hydroxyphenyl)pyridazin-4-yl]-3,8-diazabicyclo[3.2.1]octan-8-yl}pyridin-2-yl)oxy]-3,3-difluoropiperidin-1-yl]methyl}piperidin-1-yl)-1,2-oxazol-5-yl]-3-methylbutanoyl]-4-hydroxy-N-[(1S)-1-[4-(4-methyl-1,3-thiazol-5-yl)phenyl]ethyl]pyrrolidine-2-carboxamide] | 2.5 to 10 | > 75
5 | Cc1ncsc1-c1ccc([C@H](C)NC(=O)[C@@H]2C[C@@H](O)CN2C(=O)[C@@H](c2cc(N3CCC(CN4CCC5(CCC5N5CCO[C@H](CN6C7CCC6CN(c6cc(-c8ccccc8O)nnc6N)C7)C5)CC4)CC3)no2)C(C)C)cc1 (stereo partly drawn) [Compound 143, (2S,4R)-1-[(2R)-2-{3-[4-({1-[(2S)-2-({3-[3-amino-6-(2-hydroxyphenyl)pyridazin-4-yl]-3,8-diazabicyclo[3.2.1]octan-8-yl}methyl)morpholin-4-yl]-7-azaspiro[3.5]nonan-7-yl}methyl)piperidin-1-yl]-1,2-oxazol-5-yl}-3-methylbutanoyl]-4-hydroxy-N-[(1S)-1-[4-(4-methyl-1,3-thiazol-5-yl)phenyl]ethyl]pyrrolidine-2-carboxamide] | < 2.5 | > 75
6 | CC(C)[C@@H](C(=O)N1C[C@H](O)C[C@H]1C(=O)N[C@@H](C)c1ccc(C#N)cc1)c1cc(N2CCC(CN3CC[C@@H](Oc4cc(N5C6CCC5CN(c5cc(-c7ccccc7O)nnc5N)C6)ccn4)[C@@H](F)C3)CC2)no1 [Compound 157, (2S,4R)-1-[(2R)-2-[3-(4-{[(3S,4R)-4-[(4-{3-[3-amino-6-(2-hydroxyphenyl)pyridazin-4-yl]-3,8-diazabicyclo[3.2.1]octan-8-yl}pyridin-2-yl)oxy]-3-fluoropiperidin-1-yl]methyl}piperidin-1-yl)-1,2-oxazol-5-yl]-3-methylbutanoyl]-N-[(1S)-1-(4-cyanophenyl)ethyl]-4-hydroxypyrrolidine-2-carboxamide] | < 2.5 | > 75
7 | Cc1ncsc1-c1ccc([C@H](C)NC(=O)[C@@H]2C[C@@H](O)CN2C(=O)[C@@H](c2cc(N3CCC(CN4CCC5(CC4)CC(N4CCO[C@@H](C(=O)N6C7CCC6CN(c6cc(-c8ccccc8O)nnc6N)C7)C4)C5)CC3)no2)C(C)C)cc1 [Compound 62, (2S,4R)-1-[(2R)-2-{3-[4-({2-[(2R)-2-{3-[3-amino-6-(2-hydroxyphenyl)pyridazin-4-yl]-3,8-diazabicyclo[3.2.1]octane-8-carbonyl}morpholin-4-yl]-7-azaspiro[3.5]nonan-7-yl}methyl)piperidin-1-yl]-1,2-oxazol-5-yl}-3-methylbutanoyl]-4-hydroxy-N-[(1S)-1-[4-(4-methyl-1,3-thiazol-5-yl)phenyl]ethyl]pyrrolidine-2-carboxamide] | < 2.5 | > 75
8 | CC(C)[C@@H](C(=O)N1C[C@H](O)C[C@H]1C(=O)N[C@@H](C)c1ccc(-c2ccnn2C)cc1)c1cc(N2CCC(CN3CCC(O[C@H]4C[C@H](OC(=O)N5CCN(c6cc(-c7ccccc7O)nnc6N)CC5)C4)CC3)CC2)no1 [Compound 115, (1r,3r)-3-({1-[(1-{5-[(2R)-1-[(2S,4R)-4-hydroxy-2-{[(1S)-1-[4-(1-methyl-1H-pyrazol-5-yl)phenyl]ethyl]carbamoyl}pyrrolidin-1-yl]-3-methyl-1-oxobutan-2-yl]-1,2-oxazol-3-yl}piperidin-4-yl)methyl]piperidin-4-yl}oxy)cyclobutyl 4-[3-amino-6-(2-hydroxyphenyl)pyridazin-4-yl]piperazine-1-carboxylate] | ≥ 30 | –
9 | Cc1ncsc1-c1ccc([C@H](C)NC(=O)[C@@H]2C[C@@H](O)CN2C(=O)[C@@H](c2cc(N3CCC(CN4CCC5(CC4)CC(N4CCOC6(CC(CN7C8CCC7CN(c7cc(-c9ccccc9O)nnc7N)C8)C6)C4)C5)CC3)no2)C(C)C)cc1 [Compound 126, (2S,4R)-1-[(2R)-2-{3-[4-({2-[2-({3-[3-amino-6-(2-hydroxyphenyl)pyridazin-4-yl]-3,8-diazabicyclo[3.2.1]octan-8-yl}methyl)-5-oxa-8-azaspiro[3.5]nonan-8-yl]-7-azaspiro[3.5]nonan-7-yl}methyl)piperidin-1-yl]-1,2-oxazol-5-yl}-3-methylbutanoyl]-4-hydroxy-N-[(1S)-1-[4-(4-methyl-1,3-thiazol-5-yl)phenyl]ethyl]pyrrolidine-2-carboxamide] | 2.5 to 10 | > 75
